# Assay results taken from ChEMBL document CHEMBL3045128, “Borrelidin, a potent antifungal agent: insight into the antifungal mechanism against Phytophthora sojae” (J Agric Food Chem, 2012).
# Calls of active or inactive are those of the source. The calls are words filed in the database; no cut-off is given here.
# Tests used:
# [1] = system: Phytophthora sojae; experiment: Antifungal activity against Phytophthora sojae race 1 assessed as radial growth inhibition at 0.008 ug/ml incubated at 28 degC in the dark for 6 to 8 days in presence of 0.2 to 0.6 mM glutamine; assay type: functional, organism-based
# [2] = system: Phytophthora sojae; experiment: Antifungal activity against Phytophthora sojae race 1 assessed as radial growth inhibition at 0.008 ug/ml incubated at 28 degC in the dark for 6 to 8 days in presence of 0.2 to 0.6 mM tyrosine; assay type: functional, organism-based
# [3] = target: T1, Threonyl-tRNA synthase (Phytophthora sojae, UniProt G3FIN0); experiment: Inhibition of C-terminal His6-tagged Phytophthora sojae race 1 recombinant ThrRS expressed in Escherichia coli BL21 (Codonplus DE3) assessed as reduction in initial velocity at the step of threonine activation preincubated for 10 min with 4 uM enzyme before threonine addition measured after 30 min by HPLC analysis
# T1 sequence (G3FIN0 whole entry): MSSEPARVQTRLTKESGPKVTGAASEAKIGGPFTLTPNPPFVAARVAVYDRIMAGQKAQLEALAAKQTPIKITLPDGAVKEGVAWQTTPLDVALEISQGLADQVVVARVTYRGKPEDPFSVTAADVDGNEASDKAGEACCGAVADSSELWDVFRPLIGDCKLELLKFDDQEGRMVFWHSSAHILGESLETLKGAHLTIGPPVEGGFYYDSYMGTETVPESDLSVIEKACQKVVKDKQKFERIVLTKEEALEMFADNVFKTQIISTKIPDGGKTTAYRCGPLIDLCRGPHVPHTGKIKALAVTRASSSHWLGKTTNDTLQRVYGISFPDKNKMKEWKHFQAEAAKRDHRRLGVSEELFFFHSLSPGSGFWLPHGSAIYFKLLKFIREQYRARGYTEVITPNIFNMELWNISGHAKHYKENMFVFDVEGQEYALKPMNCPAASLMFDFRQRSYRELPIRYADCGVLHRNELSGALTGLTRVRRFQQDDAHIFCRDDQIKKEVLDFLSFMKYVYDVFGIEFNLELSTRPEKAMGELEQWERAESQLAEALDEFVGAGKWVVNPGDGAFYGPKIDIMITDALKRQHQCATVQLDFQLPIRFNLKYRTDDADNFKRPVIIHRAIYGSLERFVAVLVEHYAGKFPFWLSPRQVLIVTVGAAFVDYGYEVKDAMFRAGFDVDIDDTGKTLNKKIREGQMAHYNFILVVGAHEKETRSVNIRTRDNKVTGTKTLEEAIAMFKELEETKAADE
# [4] = system: Pythium; experiment: Antifungal activity against Pythium species; assay type: functional, organism-based
# [5] = target: T2, Threonyl-tRNA synthase (Phytophthora sojae) (UniProt G3FIN0); experiment: Binding affinity to C-terminal His6-tagged Phytophthora sojae race 1 recombinant ThrRS expressed in Escherichia coli BL21 (Codonplus DE3) assessed as static fluorescence quenching by FRET analysis
# T2 sequence (whole entry): T1 sequence (G3FIN0 whole entry)
# [6] = target: T2, Threonyl-tRNA synthase (Phytophthora sojae); experiment: Binding affinity to C-terminal His6-tagged Phytophthora sojae race 1 recombinant ThrRS expressed in Escherichia coli BL21 (Codonplus DE3) assessed as equilibrium binding constant by fluorescence spectroscopy
# [7] = target: T2, Threonyl-tRNA synthase (Phytophthora sojae); experiment: Binding affinity to C-terminal His6-tagged Phytophthora sojae race 1 recombinant ThrRS expressed in Escherichia coli BL21 (Codonplus DE3) assessed as Stern-Volmer quenching constant at 47 degC by fluorescence spectroscopy
# [8] = target: T2, Threonyl-tRNA synthase (Phytophthora sojae); experiment: Binding affinity to C-terminal His6-tagged Phytophthora sojae race 1 recombinant ThrRS expressed in Escherichia coli BL21 (Codonplus DE3) assessed as increase in alpha helicity of the protein at protein to compound ratio of 1:1 by CD spectroscopy (reference value: 18.3%)
# [9] = target: T2, Threonyl-tRNA synthase (Phytophthora sojae); experiment: Binding affinity to C-terminal His6-tagged Phytophthora sojae race 1 recombinant ThrRS expressed in Escherichia coli BL21 (Codonplus DE3) assessed as quenching rate constant at 37 degC by fluorescence spectroscopy
# [10] = system: Phytophthora sojae; experiment: Antifungal activity against Phytophthora sojae race 1 assessed as radial growth inhibition at 0.008 ug/ml incubated at 28 degC in the dark for 6 to 8 days in presence of 0.2 to 0.6 mM L-aspargine; assay type: functional, organism-based
# [11] = system: Phytophthora sojae; experiment: Antifungal activity against Phytophthora sojae race 1 assessed as radial growth inhibition at 0.006 ug/ml incubated at 28 degC in the dark for 6 to 8 days in presence of 0.6 mM threonine; assay type: functional, organism-based
# [12] = target: T2, Threonyl-tRNA synthase (Phytophthora sojae); experiment: Binding affinity to C-terminal His6-tagged Phytophthora sojae race 1 recombinant ThrRS expressed in Escherichia coli BL21 (Codonplus DE3) assessed as decrease in beta sheet content of the protein at protein to compound ratio of 1:1 by CD spectroscopy (reference value: 25.6%); design: scale not given: the % may be the effect or the level left
# [13] = target: T2, Threonyl-tRNA synthase (Phytophthora sojae); experiment: Binding affinity to C-terminal His6-tagged Phytophthora sojae race 1 recombinant ThrRS expressed in Escherichia coli BL21 (Codonplus DE3) assessed as increase in alpha helicity of the protein at protein to compound ratio of 1:5 by CD spectroscopy (reference value: 18.3%)
# [14] = target: T2, Threonyl-tRNA synthase (Phytophthora sojae); experiment: Binding affinity to C-terminal His6-tagged Phytophthora sojae race 1 recombinant ThrRS expressed in Escherichia coli BL21 (Codonplus DE3) at 20 to 200 uM at 27 to 47 degC after 30 min by fluorescence quenching assay
# [15] = system: Phytophthora sojae; experiment: Antifungal activity against Phytophthora sojae race 1 assessed as radial growth inhibition at 0.008 ug/ml incubated at 28 degC in the dark for 6 to 8 days in presence of 0.2 to 0.6 mM alanine; assay type: functional, organism-based
# [16] = target: T2, Threonyl-tRNA synthase (Phytophthora sojae); experiment: Binding affinity to C-terminal His6-tagged Phytophthora sojae race 1 recombinant ThrRS expressed in Escherichia coli BL21 (Codonplus DE3) assessed as Stern-Volmer quenching constant at 37 degC by fluorescence spectroscopy
# [17] = target: T2, Threonyl-tRNA synthase (Phytophthora sojae); experiment: Binding affinity to C-terminal His6-tagged Phytophthora sojae race 1 recombinant ThrRS expressed in Escherichia coli BL21 (Codonplus DE3) assessed as Stern-Volmer quenching constant at 27 degC by fluorescence spectroscopy
# [18] = target: T2, Threonyl-tRNA synthase (Phytophthora sojae); experiment: Binding affinity to C-terminal His6-tagged Phytophthora sojae race 1 recombinant ThrRS expressed in Escherichia coli BL21 (Codonplus DE3) assessed as quenching rate constant at 27 degC by fluorescence spectroscopy
# [19] = target: T2, Threonyl-tRNA synthase (Phytophthora sojae); experiment: Binding affinity to C-terminal His6-tagged Phytophthora sojae race 1 recombinant ThrRS expressed in Escherichia coli BL21 (Codonplus DE3) assessed as quenching rate constant at 47 degC by fluorescence spectroscopy
# [20] = target: T2, Threonyl-tRNA synthase (Phytophthora sojae); experiment: Binding affinity to C-terminal His6-tagged Phytophthora sojae race 1 recombinant ThrRS expressed in Escherichia coli BL21 (Codonplus DE3) assessed as positive entropy and enthalpy changes by themodynamic analysis
# [21] = target: T2, Threonyl-tRNA synthase (Phytophthora sojae); experiment: Binding affinity to C-terminal His6-tagged Phytophthora sojae race 1 recombinant ThrRS expressed in Escherichia coli BL21 (Codonplus DE3) assessed as decrease in beta sheet content of the protein at protein to compound ratio of 1:5 by CD spectroscopy (reference value: 25.6%); design: scale not given: the % may be the effect or the level left
compound,measurement,setting,value
C[C@@H]1C[C@H](C)C[C@H](C)[C@@H](O)CC(=O)O[C@H]([C@@H]2CCC[C@H]2C(=O)O)C/C=C/C=C(/C#N)[C@H](O)[C@@H](C)C1 [BORRELIDIN],growth inhibition (GI),[1],Active
same,growth inhibition (GI),[2],Active
same,IC50,[3],8 µM
same,Ki,[3]; read-out: Ki(app),10 µM
same,EC50,[4],0.01 µg/mL
same,Activity,[5],Active
same,KA,[6],2.55 ×10⁵ /M
same,KSV,[7],1.23 ×10⁴ /M
same,Activity,[8],24.4%
same,Kq,[9],1.33 ×10¹² L/mol/s
same,growth inhibition (GI),[10],Active
same,growth inhibition (GI),[11],inactive
same,Activity,[12],22.4%
same,Activity,[13],25.7%
same,Activity,[14],Active
same,growth inhibition (GI),[15],Active
same,KSV,[16],1.33 ×10⁴ /M
same,KSV,[17],1.54 ×10⁴ /M
same,Kq,[18],1.54 ×10¹² L/mol/s
same,Kq,[19],1.23 ×10¹² L/mol/s
same,Activity,[20],Active
same,Activity,[21],21.8%
